{"source": "patent US6608189B1", "about": "“Fluorescent protein sensors for measuring the pH of a biological sample” (University of California, priority 1998, dated 2003)", "key": {"[1]": {"tested_on": "mitochondrial matrix of HeLa cells", "assay": "pH in the mitochondrial matrix with EYFP-mito", "assay_type": "cell-based", "conditions": "HeLa cells expressing EYFP-mito", "experimental": "To measure pH in the mitochondrial matrix using mutant GFP sensor proteins, HeLa cells and neonatal rat cardiomyocytes were transfected with the fluorescent protein pH sensor EYFP-mito. A Bio-Rad MRC-1000 confocal microscope was used for analysis of the targeted protein. […] In situ pH titration was performed with nigericin/monensin as described in Example 3."}, "[2]": {"tested_on": "mitochondrial matrix of HeLa cells", "assay": "mitochondrial matrix pH with mito-YFP H148G in HeLa cells", "assay_type": "cell-based", "conditions": "5 uM", "experimental": "YFP H148G expression was monitored by observing fluorescence over time. Mitochondrial pH was also monitored by pH titration as described in Example 3 using nigericin and monensin.\n5 μM CCCp was added at about t≈300 seconds. […] Then a calibration was performed by perfusing the cells with extracellular medium of pH 7, 7.5, 8, and 8.35 containing the ionophores nigericin plus monensin to equilibrate mitochondrial pH and extracellular pH. Fluorescence in mitochondria increased stepwise with each change of extracellular pH."}, "[3]": {"tested_on": "mitochondrial matrix of chick skeletal myotubes", "assay": "mitochondrial matrix pH with mito-YFP H148G in chick skeletal myotubes", "assay_type": "cell-based", "conditions": "2 uM, t about 1400 seconds", "description": "Fluorescence was also examined, and pH measured, in primary cultures of chick skeletal myotubes transfected with the mito-YFP H148G mutant. […] Thereafter fluorescence continued to be observed during calibration at ph 6.9, 7.6 and 8.0."}, "[4]": {"tested_on": "mitochondria of HeLa cells", "assay": "GFP T203I as pH-insensitive reference in mitochondria of HeLa cells", "assay_type": "cell-based", "conditions": "control experiments", "experimental": "To identify a GFP sensor protein suitable for use as a reference protein for measuring mitochondrial matrix pH, the GFP mutant T203I was expressed in the mitochondria of HeLa cells.\nFluorescence of HeLa cells transfected with the GFP T203I mutant was monitored for about 400 seconds using an excitation ratio of 480 nm/400 nm. 10 μM CCCP was then added to the cells, and fluorescence was monitored for an additional 250 seconds. […] In control experiments, it was observed that addition of CCCP corresponded to a drop in pH of about 1 unit. Thus, the GFP T203I mutant is suitable for use as a reference, pH-insensitive mutant."}, "HeLa cells": {"tested_on": "HeLa cells", "assay": "pH in cytosol and nucleus of cells expressing EYFP", "assay_type": "cell-based", "conditions": "reversible on wash-out", "experimental": "HeLa cells and AT-20 cells grown on glass coverslips were transiently lipo-transfected (Lipofectin™, GIBCO) with polynucleotide constructs encoding EYFP.\n(§1) Cells were imaged between 2 and 4 days after transfection at 22° C. with a cooled charge-coupled device camera (Photometrices, Tucson, Ariz.) as described in Miyawaki et al., Nature 388:882, (1997). The interference filters (Omega Optical and Chroma Technology, Brattleboro, Vt.) used for excitation and emission were 440 ECFP; 480 535 EGFP or EYFP. The dichroic mirrors were 455 DCLP for ECFP and 505 DCLP for EGFP or EYFP. Regions of interest were selected manually, and pixel intensities were spatially averaged after background subtraction. A binning of 2 was used to improve signal/noise and minimize photodamage and photoisomerization of EYFP. High KCl buffer plus 5 μM each of the ionophores nigericin (Fluka) and monensin (Calbiochem) was used for in situ titrations in living cells. Cells were loaded with cytosolic pH indicators by incubation with 3 μM carboxy-SNARF/AM or BCECF/AM (Molecular Probes) for 45 minutes, then washed for 30 minutes, all at 22° C.\nCalibration of fluorescence intensity with pH in situ was accomplished with a mix of the alkali cation/H+ ionophores nigericin and monensin in bath solutions of defined pH and high K+. Fluorescence equilibrated within 1-4 minutes after each exchange of solution."}, "[5]": {"tested_on": "Golgi lumen of HeLa cells", "assay": "pH in the Golgi lumen with GT-EYFP", "assay_type": "cell-based", "conditions": "HeLa cells expressing GT-EYFP", "experimental": "as §1\nThe pH of the Golgi lumen was measured by transfecting HeLa or AT-20 cells with the constructs GT-ECFP, GT-EGFP, or GT-EYFP. Bright juxtanuclear fluorescence was observed, with little increase in diffuse staining above autofluorescnce in most cells.\nThe pH gradient across the Golgi membrane is maintained by the electrogenic ATP-dependent H^+ pump (V-ATPase). The V-ATPase generates a ΔpH (acidic inside) and Δψ(positive inside), which opposes further H^+ transport. The movement of counter-ions, Cl^− in (or K^+ out), with H^+ uptake would shunt the Δψ, allowing a larger ΔpH to be generated. These mechanisms were investigated in intact single HeLa cells transfected with GT-EYFP."}, "[6]": {"tested_on": "Golgi lumen of HeLa cells", "assay": "ratiometric Golgi pH with GT-EYFP and GT-ECFP", "assay_type": "cell-based", "conditions": "cotransfected HeLa cells", "description": "Quantitative measurements of fluorescence with nonratiometric indicators can suffer from artifacts as a result of cell movement or focusing. To correct for these effects, the cyan-emitting mutant GT-ECFP was co-transfected into cells along with GT-EYFP. ECFP has excitation and emission peaks that can be separated from those of EYFP by appropriate filters. In addition, ECFP is less pH-sensitive than EYFP (see FIG. 2B).\nAlthough the ratio of EYFP to ECFP emission varied between cells, probably reflecting a different concentration of GT-EYFP and GT-ECFP in the Golgi lumen, it changed with pH as expected (FIG. 3B). Bafilomcin A1 raised the GT-EYFP/GT-ECFP emission ratio, i.e, it raised pHG."}, "macrophage phagosomes": {"tested_on": "macrophage phagosomes", "conditions": "cited from earlier work"}, "[7]": {"tested_on": "mitochondrial matrix of HeLa cells", "assay": "mitochondrial matrix pH with mito-YFP H148Q in HeLa cells", "assay_type": "cell-based", "conditions": "10 uM in high KCl titration buffer", "experimental": "The YFP H148Q mutant has a pKa of about 7.4, which is intermediate between the pKa of EYFP and YFP mutant H148G. […] Fluorescence was measured over time (beginning at t≈0), including following the addition of 10 μM nigericin in high KCL titration buffer at t≈500 seconds.\nFluorescence decreased to about 175 units at t=1000 seconds by addition of nigericin, which lowered the pH to about 6.9. Fluorescence then returned stepwise to 400 units with each change of the extracellular medium."}, "[8]": {"molecular_target": "YFP (yellow fluorescent protein; GFP quadruple mutant T203Y/S65G/V68L/S72A, also carrying Q80R) (Aequorea victoria) [GFP: P42212]", "assay": "X-ray crystal structure of YFP, largest contact area with an adjacent molecule"}}}
{"compound": "N#CC(C#N)=NNc1cccc(Cl)c1", "note": "[CCCP, carbonylcyanide m-chlorophenylhydrazone]", "values": [{"measurement": "mitochondrial pH after acidification by the protonophore", "setting": "[1]", "result": "~7"}, {"measurement": "mitochondrial pH after addition", "setting": "[2]", "result": 7.0}, {"measurement": "mitochondrial pH after addition", "setting": "[3]", "result": 6.9}, {"measurement": "drop in pH on addition", "setting": "[4]", "result": "about 1 unit"}]}
{"compound": "Cl.N", "note": "[NH4Cl]", "values": [{"measurement": "change of EYFP fluorescence (pH) on perfusion", "setting": "HeLa cells", "result": "increase in fluorescence"}]}
{"compound": "CO/C1=C\\C(C)=C\\[C@@H](C)[C@@H](O)[C@@H](C)C/C(C)=C/C=C/[C@H](OC)[C@@H]([C@@H](C)[C@@H](O)[C@H](C)[C@@]2(O)C[C@@H](O)[C@H](C)[C@@H](C(C)C)O2)OC1=O", "note": "[bafilomycin A1]", "values": [{"measurement": "increase of pHG", "setting": "[5]; 0.2 uM", "result": "about 0.6 units"}, {"measurement": "pHG after treatment", "setting": "[5]; 0.2 uM, n=12 cells", "result": 7.16}, {"measurement": "initial rate of Golgi alkalinization", "setting": "[5]; n=12 cells", "result": 0.52, "unit": "pH units per minute"}, {"measurement": "GT-EYFP/GT-ECFP emission ratio (pHG)", "setting": "[6]", "result": "raised"}, {"measurement": "rate of alkalinization reported for other acidic compartments", "setting": "macrophage phagosomes", "result": 0.09, "unit": "pH/min"}]}
{"compound": "CC(O)C(=O)O", "note": "(stereo not shown) [lactate]", "values": [{"measurement": "change of EYFP fluorescence (pH) on perfusion", "setting": "HeLa cells", "result": "decrease in fluorescence"}]}
{"compound": "CO[C@@H]1C[C@@H](C[C@H]2CC[C@H](C)[C@H]([C@@H](C)C(=O)O)O2)O[C@]2(O[C@](C)([C@H]3CC[C@@](C)([C@@H]4O[C@@H]([C@H]5O[C@@](O)(CO)[C@H](C)C[C@@H]5C)C[C@@H]4C)O3)C[C@H]2C)[C@@H]1C", "note": "[nigericin]", "values": [{"measurement": "mitochondrial pH after addition", "setting": "[7]", "result": "about 6.9"}]}
{"compound": "YFP (yellow fluorescent protein; GFP quadruple mutant T203Y/S65G/V68L/S72A, also carrying Q80R) (from UniProt P42212 1-238)", "values": [{"measurement": "contact area on one monomer surface", "setting": "[8]", "result": 722, "unit": "Å2"}]}
